Source: patent publication US20240287079A1, “6-AMINOPYRAZOLOPYRIMIDINE COMPOUND AND PHARMACEUTICAL USE THEREOF” (Japan Tobacco Inc., priority 2021, published 2024)

molecular target: NLRP3 inflammasome (Homo sapiens (Human), UniProt Q96P20); experiment: Evaluation of NLRP3 inflammasome inhibitory activity (inhibition of IL-1β production in LPS/Nigericin-stimulated THP1-Null cells); format: cell-based; conditions: IL-1β production in THP1-Null cells, PMA, LPS 1 μg/mL, Nigericin 7.5 μmol/L, AlphaLISA
Protocol: The NLRP3 inflammasome inhibitory activity of test compounds were evaluated on the basis of the inhibitory activity of the IL-1β production in THP1-Null cells (Product Number: thp-null, InvivoGen). […] The supernatant of the culture was removed, and thereto was added media for assay (25 μL/well) containing 1 μg/mL Lipopolysaccharides (Product Number: L2654, Sigma-Aldrich (registered trademark)). […] The supernatant of the culture was removed. […] A solution containing a test compound (20 μL/well) was added to test compound-setting wells. […] The supernatant of the culture was cryonically stored (set at −20° C.) until measurement of IL-1β.
The amount of IL-1β in the culture supernatant was quantitated with AlphaLISA(registered trademark) Human IL-1β Detection Kit (Product Number: AL220C, Perkin Elmer). Fluorescence intensity was measured with a microplate reader EnSpier (Model number: 2300-00J, Perkin Elmer) or EnSight(Model number: HH34000000, Perkin Elmer) according to procedure manuals attached thereto. Inhibition rates of the test compound-setting wells were calculated on the basis of 100% for the blank-setting wells and 0% for the control-setting wells.

NLRP3 inflammasome, sequence (Q96P20 whole entry): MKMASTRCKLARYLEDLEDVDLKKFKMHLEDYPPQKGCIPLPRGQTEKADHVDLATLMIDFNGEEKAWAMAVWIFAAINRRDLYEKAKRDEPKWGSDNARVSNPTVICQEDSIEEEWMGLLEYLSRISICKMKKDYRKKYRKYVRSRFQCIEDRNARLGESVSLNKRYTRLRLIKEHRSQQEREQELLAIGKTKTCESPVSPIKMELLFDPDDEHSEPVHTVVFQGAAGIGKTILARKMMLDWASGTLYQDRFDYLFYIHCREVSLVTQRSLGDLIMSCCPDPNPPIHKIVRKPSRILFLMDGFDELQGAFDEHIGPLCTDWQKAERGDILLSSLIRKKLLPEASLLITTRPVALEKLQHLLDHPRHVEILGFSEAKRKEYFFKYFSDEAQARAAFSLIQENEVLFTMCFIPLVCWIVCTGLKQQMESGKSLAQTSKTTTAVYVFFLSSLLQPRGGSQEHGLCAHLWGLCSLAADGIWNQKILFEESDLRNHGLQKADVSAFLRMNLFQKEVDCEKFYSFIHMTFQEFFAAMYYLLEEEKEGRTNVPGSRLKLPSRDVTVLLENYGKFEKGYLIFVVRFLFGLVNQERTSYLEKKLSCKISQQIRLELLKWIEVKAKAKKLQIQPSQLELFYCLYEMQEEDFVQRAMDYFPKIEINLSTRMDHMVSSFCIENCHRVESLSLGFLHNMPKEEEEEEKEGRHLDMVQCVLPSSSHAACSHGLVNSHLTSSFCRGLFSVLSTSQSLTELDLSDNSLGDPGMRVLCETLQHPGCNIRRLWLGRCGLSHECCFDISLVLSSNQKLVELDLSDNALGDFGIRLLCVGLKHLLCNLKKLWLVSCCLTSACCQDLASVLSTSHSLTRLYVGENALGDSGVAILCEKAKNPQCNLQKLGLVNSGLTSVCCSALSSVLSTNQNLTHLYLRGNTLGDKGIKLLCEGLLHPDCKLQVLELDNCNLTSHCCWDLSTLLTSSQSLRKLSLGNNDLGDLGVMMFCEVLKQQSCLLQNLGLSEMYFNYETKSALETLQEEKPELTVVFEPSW

SMILES	IC50 [nM]
Cc1cc(Br)ccc1-n1cc2c(=O)n(CCO)c(N3CCOCC3)nc2n1 [Example 163]	47
Cc1cc(C(F)(F)F)cnc1-n1cc2c(=O)[nH]c(N3CCOCC3)nc2n1 [Example 122]	180
Cc1nn(C2CCCC2)c(C)c1-n1cc2c(=O)[nH]c(N3CCCC3)nc2n1 [Example 350]	1200
CC(C)(C)OC(=O)N1CCCN(c2nc3nn(-c4ccc(C(F)(F)F)cc4Cl)cc3c(=O)[nH]2)CC1 [Example 132]	74
COCc1cc(Br)ccc1-n1cc2c(=O)[nH]c(N3CCOCC3)nc2n1 [Example 268]	34
Cc1cc(C)c(-n2cc3c(=O)[nH]c(N4CCC(S(C)(=O)=O)C4)nc3n2)c(C)c1 (racemic) [Example 112]	55
O=c1[nH]c(N2CCCC2)nc2nn(-c3ncc(C(F)(F)F)cc3Cl)cc12 [Example 157]	33
O=c1[nH]c(N2CCCC2)nc2nn(-c3c(Cl)cccc3Cl)cc12 [Example 30, 2-(2,6-dichlorophenyl)-6-(pyrrolidin-1-yl)-2,5-dihydro-4H-pyrazole[3,4-d]pyrimidin-4-one]	1100
Cc1cc(Br)cc(C)c1-n1cc2c(=O)[nH]c(N3CCOC4CC43)nc2n1 (racemic) [Example 289]	10
COc1nc(N2CCN(S(C)(=O)=O)CC2)nc2nn(-c3ccc(Br)cc3C)cc12 [Example 137]	170
CO[C@@H]1CCN(c2nc3nn(-c4c(C)cc(C5CC5)cc4C)cc3c(=O)[nH]2)C1 [Example 317]	5.2
Cc1cc(Br)cc(C)c1-n1cc2c(=O)[nH]c(N3CCCO3)nc2n1 [Example 308]	170
Cc1cc(Br)cc(C)c1-n1cc2c(=O)[nH]c(N3CC4CC(C3)N4S(C)(=O)=O)nc2n1 [Example 222]	18
Cc1cc(C)c(-n2cc3c(=O)[nH]c(N4CCN(S(=O)(=O)C5CC5)CC4)nc3n2)c(C)c1 [Example 103]	6.5
COCC(=O)N1CC2CC1CN2c1nc2nn(-c3c(C)cc(Br)cc3C)cc2c(=O)[nH]1 (racemic) [Example 220]	23
Cc1cc(Br)ccc1-n1cc2c(=O)n(C)c(N3CCOCC3)nc2n1 [Example 88, 2-(4-bromo-2-methylphenyl)-5-methyl-6-morpholino-2,5-dihydro-4H-pyrazolo[3,4-d]pyrimidin-4-one]	39
Cc1ccccc1-n1cc2c(=O)[nH]c(N3CCC(C#N)C3)nc2n1 (racemic) [Example 26]	1300
O=c1[nH]c(N2C[C@@H]3C[C@H]2CO3)nc2nn(-c3ccc(Br)cc3C(F)(F)F)cc12 [Example 260]	17
CNc1nc2nn(-c3ccc(C)cc3C)cc2c(=O)n1C [Example 80]	570
Cc1ccccc1-n1cc2c(=O)[nH]c(N3CCC3(C)C)nc2n1 [Example 39]	7100
Cc1ccc(-n2cc3c(=O)[nH]c(N4CCN(C)CC4)nc3n2)c(C)c1 [Example 84]	95
Cc1cc(Br)cc(C)c1-n1cc2c(=O)[nH]c(N3CC4CC3C4)nc2n1 (racemic) [Example 217]	7.1
CC(=O)N1CCN(c2nc3nn(-c4ccc(Br)cc4C)cc3c(=O)[nH]2)CC1 [Example 73]	8.2
Cc1cc(Cl)cc(C(=O)C2CC2)c1-n1cc2c(=O)[nH]c(N3CCOCC3)nc2n1 [Example 167]	430
Cc1nc(C(F)(F)F)ccc1-n1cc2c(=O)[nH]c(N3CCOCC3)nc2n1 [Example 121]	540
COCc1cc(Cl)ccc1-n1cc2c(=O)[nH]c(N3CCCC3)nc2n1 [Example 144]	24
Cc1cccc(C)c1-n1cc2c(=O)[nH]c(N3CCOCC3)nc2n1 [Example 233]	760
Cc1cc(Br)cc(C)c1-n1cc2c(=O)[nH]c(N3C[C@@H]4C[C@H]3CO4)nc2n1 [Example 195]	6.8

same assay, conditions: IL-1β production in THP1-Null cells; test compound 0.0024 μM

SMILES	inhibition at 0.0024 µM [%]
Cc1cc(C2CC2)cc(C)c1-n1cc2c(=O)[nH]c(N3CCN(S(C)(=O)=O)CC3)nc2n1 [Example 125]	52
CCNc1nc2nn(-c3c(C)cc(Br)cc3C)cc2c(=O)[nH]1 [Example 227]	52
